Earlier results on two molecules are cited in patent US6436949B1, “Heterocyclically substituted benzamides and their use” (Abbott Laboratories, priority 1996, dated 2002).

The subject of data set [1] is calpain. As to conditions: activated platelets; J. Biol. Chem., 1993, Vol 268, 12603-12608.
Data set [2] concerns calpain. Conditions: J.Med.Chem. 1990,33, 11-13.

With `CCCC[C@@H](C=O)NC(=O)[C@H](CC(C)C)NC(=O)OCc1ccccc1` [calpeptin], the “cleavage of pp60src” value in data set [1] was “can be prevented”.
For the molecule Ph—CONH—CH(CH2Ph)—CO—COCOOCH3, in data set [2], the inhibition of calpain entry was “weak inhibitor of calpain”.
